In patent US12497405B2, “Bicyclic heterocycle compounds methods of use thereof for the treatment of herpes viruses” (Merck Sharp & Dohme LLC, priority 2019, dated 2025):
Read-outs that look alike come from different tables or passages of the source.

Legend:
[1] = target: Human cytomegalovirus DNA polymerase (Human cytomegalovirus (strain AD169) (HHV-5) (Human herpesvirus 5), UniProt P08546); assay: CMV polymerase assay (AlphaLISA); type: biochemical; conditions: HCMV polymerase 0.2 nM, 30 min pre-incubation, 60 minute at 37° C.
Method: (§1) Human cytomegalovirus and varicella zoster virus DNA polymerases were expressed via baculovirus vector in SF21 cells and purified. Heterodimeric nucleic acid substrate used in the herpesvirus polymerase reactions were generated by annealing a 59-mer template to a 17-mer digoxigenin-labeled primer. Polymerase (HCMV final concentration of 0.2 nM; VZV final concentration of 0.4 nM) was combined with an inhibitor compound or DMSO in assay buffer (10 mM HEPES, pH 7.5, 25 mM KCl, 25 mM NaCl, 5 mM MgCl2, 5% glycerol, 0.67 mg/ml bovine serum albumin, and 1 mM tris(2-carboxyethyl)phosphine)), and this mixture was pre-incubated for 30 minutes at room temperature in 384-well microtiter plates. The polymerization reaction was initiated by the addition of template/primer substrate (final concentration: 1.6 nM), and dNTPs (final concentration: 24 nM dCTP, 24 nMdGTP, 16 nM dATP, 16 nM dTTP, and 0.8 nM biotin-dUTP). After a 60 minute incubation period at 37° C., the reactions were terminated using quench buffer (25 mM HEPES pH 7.5, 100 mM NaCl, 0.25% Tween-20, 12 mM EDTA, and 1 mg/ml bovine serum albumin). Incorporation of biotinylated UTP was detected with 2.5-5 μg/mL anti-DIG AlphaLISA acceptor beads and 5-10 μg/mL streptavidin AlphaLISA donor beads (PerkinElmer). Compound effects were normalized to the window defined by the controls (DMSO only and pre-quenched wells), and were fit using a 4-parameter algorithm to report an IC50.

[2] = target: varicella zoster virus DNA polymerase (Varicella-zoster virus (strain Dumas) (HHV-3) (Human herpesvirus 3), UniProt P09252); assay: VZV polymerase assay (AlphaLISA); type: biochemical; conditions: VZV polymerase 0.4 nM, 30 min pre-incubation, 60 minute at 37° C.
Method: as §1

HSV2 = assay: Viral qPCR assay, HSV2; type: cell-based; conditions: infected cells, viral genome copies by qPCR normalized to PPIA, read-out: HSV2 Cell EC50
Method: (§2) MRC5 cells, Vero cells, and MeWo cells were obtained from ATCC, and were maintained at 37° C./5% CO2/90% relative humidity in Minimal Essential Medium with 10% fetal bovine serum, […] L-glutamine, 100 units/ml penicillin and 100 ug/ml streptomycin. Assay plates were prepared by dispensing compounds dissolved in DMSO into wells of 384 well collagen-coated plates using an ECHO acoustic dispenser. Each test compound was tested in a 10-point, serial 3-fold dilution. Controls included uninfected cells and infected cells treated only with DMSO. Assays were initiated by mixing selected cells, in suspension, with virus, and dispensing 50 μl/well infected cells to pre-plated compounds. Plates were incubated at 37° C./5% CO2/90% relative humidity for ˜72 hrs to permit genomic replication, and infected cells were lysed by the addition of an equal volume of lysis buffer (10 mM Tris-HCl, pH8, 50 mM KCl, 2 mM MgCl2, 0.45% NP-40, 0.45% Tween-20, and 100 µg/ml proteinase K). An aliquot of the lysate was then transferred to a 384-well PCR plate and incubated at 56° C. for 1 hour, and then at 95° C. for 10 minutes. Levels of the selected viral gene and of the cellular control, PPIA, were measured in separate 10 μl qPCR assays using TaqMan® Gene Expression Master Mix (Applied Biosystems), and an 7900HT Fast Real-Time PCR System with 384-Well Block Module. 7-point, serial 10-fold dilutions of a plasmid standard were run on each plate to generate a standard curve, and genome copies numbers were calculated by plotting experimental Ct onto linear regression of the standard curve. Viral genome copy numbers were normalized by cellular control copy number, and compound effects were normalized to the window defined by the controls. Calculated % effects were fit using a 4-parameter algorithm, and EC50 was reported.

HSV1 = assay: Viral qPCR assay, HSV1; type: cell-based; conditions: infected cells, viral genome copies by qPCR normalized to PPIA, read-out: HSV1 Cell EC50
Method: as §2

CMV = assay: Viral qPCR assay, CMV; type: cell-based; conditions: infected cells, viral genome copies by qPCR normalized to PPIA, read-out: CMV Cell EC50
Method: as §2

Row | SMILES | IC50 [1] [nM] | IC50 [2] [nM] | EC50 (HSV2; ~72 hrs) [nM] | EC50 (HSV1; ~72 hrs) [nM] | EC50 (CMV; ~72 hrs) [nM] | EC50 (HSV1; Human alphaherpesvirus 1, 72 h) [nM] | EC50 (CMV; Human betaherpesvirus 5, 72 h) [nM] | EC50 (HSV2; Human alphaherpesvirus 2, 72 h) [nM]
1 | Cc1nc2cc(-c3cnn(C(F)F)c3)c(O[C@H]3CCN4C(=O)OC[C@@H]4C3)cc2c(=O)n1Cc1ccc(C#N)cc1 [Example 6] | 1.8 | 5 | 29 | 47 | 56 | – | – | –
2 | O=C1OC[C@@H]2C[C@@H](Oc3cc4c(=O)n(Cc5ccc(Cl)cc5)cnc4nc3-c3cnco3)CCN12 [Example 7] | 4.6 | 9.2 | 89 | 118 | 104 | – | – | –
3 | COc1nc2cc(-c3cnco3)c(O[C@H]3CCN4C(=O)OC[C@@H]4C3)cc2c(=O)n1Cc1ccc(C#N)cc1 [Example 9] | 0.44 | 0.44 | 13 | 20 | 35 | – | – | –
4 | CN1CCN(c2ccc3ccn(Cc4ccc(Cl)cc4)c(=O)c3c2)CC1 [Example 21] | 5850 | 7330 | – | – | – | – | – | –
5 | O=C1OC[C@@H]2C[C@@H](Oc3ccc4c(CO)cn(Cc5ccc(Cl)cc5)c(=O)c4c3)CCN12 [Example 29] | 21 | 13 | – | – | – | 256 | 240 | –
6 | C[C@@H]1CN(C2CCOCC2)CCN1c1ccc2ncn(Cc3ccc(Cl)cc3)c(=O)c2c1 [Example 43] | 9820 | 4960 | – | – | – | – | – | –
7 | C[C@@H]1CN(C)CCN1c1cc2c(=O)n(Cc3ccc(Cl)cc3)cnc2cc1-c1cnn(C(F)F)c1 [Example 50] | 545 | 422 | – | – | – | – | – | –
8 | C[C@@H]1CN(C)CCN1c1cc(CC(C)(C)O)c2ncn(Cc3ccc(Cl)cc3)c(=O)c2c1 [Example 55] | 109 | 139 | – | – | – | – | – | –
9 | COc1ccc(-c2cc3ncn(Cc4ccc(Cl)cc4)c(=O)c3cc2O[C@H]2CCN3C(=O)OC[C@@H]3C2)cn1 [Example 57] | 43 | 43 | – | – | – | – | – | –
10 | Cc1nc2cc(C#N)c(N3CCN(C)C[C@H]3C)cc2c(=O)n1Cc1ccc(C#N)cc1F [Example 63] | 235 | – | – | – | – | 3150 | 498 | 3710
11 | Cc1nc2c(CC(C)(C)O)cc(O[C@H]3CCN4C(=O)OC[C@@H]4C3)cc2c(=O)n1Cc1ccc(Cl)cc1 [Example 67] | 22 | 53 | – | – | – | – | – | –
12 | Cc1nc2cc(-c3cnc(C(C)(C)O)nc3)c(O[C@H]3CCN4C(=O)OC[C@@H]4C3)cc2c(=O)n1Cc1ccc(Cl)cc1 [Example 154] | – | – | – | – | – | 403 | 180 | 485
13 | Cc1nc2cc(-c3cnn(C(F)F)c3)c(O[C@H]3CCN4C(=O)OC[C@@H]4C3)cc2c(=O)n1Cc1ccc(Cl)c(CO)c1 [Example 155] | – | – | – | – | – | 5100 | 1340 | 5400
14 | N[C@H](Cc1nc2cc(-c3cnn(C(F)F)c3)c(O[C@H]3CCN4C(=O)OC[C@@H]4C3)cc2c(=O)n1Cc1ccc(Cl)cc1)C(F)(F)F [Example 156] | – | – | – | – | – | 176 | 140 | 93
15 | N[C@@H](Cc1nc2cc(-c3cnn(C(F)F)c3)c(O[C@H]3CCN4C(=O)OC[C@@H]4C3)cc2c(=O)n1Cc1ccc(Cl)cc1)C(F)(F)F [Example 157] | – | – | – | – | – | 176 | 170 | 81
